Test system: H1N1 (influenza A/New Caledonia/20/99)
Experiment: microbe, parasite or virus in culture
Type: cell-based
Conditions: H1N1, A549, 48 h

Row | Compound | IC50
1 | COC1=CC(c2cc3c([nH]2)CCCC3)=N/C1=C\c1[nH]c(C)cc1C [Compound 3, (Z)-2-(2-((3,5-dimethyl-1H-pyrrol-2-yl)methylene)-3-methoxy-2H-pyrrol-5-yl)-4,5,6,7-tetrahydro-1H-indole] | 56 nM
2 | COC1=CC(c2cc3c([nH]2)CCCC3C)=N/C1=C\c1[nH]c(C)cc1C (centres unmarked) [Compound 7, (Z)-2-(2-((3,5-dimethyl-1H-pyrrol-2-yl)methylene)-3-methoxy-2H-pyrrol-5-yl)-4-methyl-4,5,6,7-tetrahydro-1H-indole] | 75 nM
3 | COC1=CC(c2cc3c([nH]2)CCC(C)C3)=N/C1=C\c1[nH]c(C)cc1C (centres unmarked) [Compound 19, (Z)-2-(2-((3,5-dimethyl-1H-pyrrol-2-yl)methylene)-3-methoxy-2H-pyrrol-5-yl)-5-methyl-4,5,6,7-tetrahydro-1H-indole] | 91 nM
4 | COC1=CC(c2cc3c([nH]2)CCCC32CC2)=N/C1=C\c1[nH]c(C)cc1C [Compound 23, (Z)-2′-(2-((3,5-dimethyl-1H-pyrrol-2-yl)methylene)-3-methoxy-2H-pyrrol-5-yl)-1′,5′,6′,7′-tetrahydrospiro[cyclopropane-1,4′-indole]] | 77 nM
5 | COC1=CC(c2cc3ccccc3[nH]2)=N/C1=C\c1[nH]c(C)cc1C [Obatoclax, reference compound] | 91 nM
